Measurements taken from a compilation of properties of binary mixtures (doi:10.1016/j.fluid.2020.112621).

Assay: xn = mol fraction of the nth substance listed
Details: 101 kPa

CCC(=O)O.CCC(=O)[O-].CC[NH+](CC)CCO + CCCC[n+]1ccn(C)c1.COP(=O)([O-])OC
viscosity [mPa·s]
Details	x1 = 0.08	x1 = 0.1549	x1 = 0.2364	x1 = 0.3281	x1 = 0.4183	x1 = 0.4953	x1 = 0.6252	x1 = 0.7416	x1 = 0.8667	x1 = 1
278.15 K	–	1099.1	655	428	329	294	241.4	208.2	184.2	244
283.15 K	1248.1	726	–	297	230.3	–	–	–	131	169
288.15 K	822	494	311	211.1	165.3	147.5	–	107.1	95.3	120.7
293.15 K	559	346	223.3	–	121.5	108.6	91.7	79.5	–	88.3
298.15 K	391	248.6	164.2	114.9	91.4	81.8	69.5	–	53.8	–
303.15 K	–	183.2	–	87.6	–	62.8	53.7	46.6	–	50.6
308.15 K	206.6	137.9	94.7	68	–	49.2	42.2	36.7	–	39.4
313.15 K	155.3	105.8	73.9	–	43.7	–	33.7	29.3	26.3	31.2
318.15 K	119	82.7	58.7	43.2	35.28	31.69	–	23.81	21.38	25.1
323.15 K	92.7	65.7	–	35.21	28.91	–	22.51	19.58	17.6	20.5
328.15 K	73.5	52.95	–	29.06	23.98	21.58	18.74	–	–	16.89
333.15 K	59.07	43.24	31.98	24.27	20.13	–	15.77	13.7	–	–
338.15 K	–	35.76	–	20.49	17.07	15.33	–	–	10.47	11.89
343.15 K	39.67	29.9	22.63	17.47	14.6	–	11.5	9.98	8.98	10.12
348.15 K	33.08	–	19.32	15.03	–	11.29	–	8.63	–	8.68
353.15 K	27.89	–	16.64	13.04	–	9.81	8.67	7.52	6.75	7.5
358.15 K	23.73	18.56	14.45	11.4	–	–	–	6.59	5.91	6.52
363.15 K	20.39	16.1	12.65	10.04	8.5	7.58	6.72	–	5.21	–
368.15 K	–	–	11.15	8.9	7.55	6.73	5.98	–	4.62	5.01
373.15 K	15.41	12.4	9.89	7.94	6.75	6.01	5.34	–	4.11	–

CCCC[n+]1ccn(C)c1.O=S(=O)([N-]S(=O)(=O)C(F)(F)F)C(F)(F)F + CC(=O)[O-].CCCC[NH2+]CCO
x2 = 0
Details	viscosity [mPa·s]
283.15 K	109
298.15 K	51.73
303.15 K	41.8
308.15 K	34.3
313.15 K	28.55
323.15 K	20.5
328.15 K	17.64
333.15 K	15.33
338.15 K	13.43
343.15 K	11.85
348.15 K	10.53
353.15 K	9.41
358.15 K	8.46
363.15 K	7.65
368.15 K	6.95
373.15 K	6.34
